Legend:
[1] = test system: type 2 diabetes db/db mice; conditions: injected subcutaneously once every three days

With polyethylene glycol loxenatide the glucose-dependent insulinotropic function (normal rats) was “Good glucose-dependent insulinotropic function”, the body weight [1] was “reduced” and the “efficacy compared with Exenatide injected subcutaneously twice a day” value [1] was “comparable to that of Exenatide”. For the same substance, the fasting blood glucose [1] was “significantly reduced”, the glucose tolerance [1] was “improved” and the random blood glucose [1] was “significantly reduced”. For the same substance, the serum fructosamine levels [1] was “significantly reduced”.

— patent US11771773B2, “Pharmaceutical preparation containing polyethylene gylcol loxenatide and preparation method thereof” (Jiangsu Hansoh Pharmaceutical Group Co., Ltd., priority 2016, dated 2023)
